Results taken from patent US7910599B2 (priority 2005, dated 2011).
“Also recorded” adds a separate entry of the source.

How the values were obtained:
[1] = tested on: rats; assay: Rats kept continually on antagonist in the food, alcohol drinking; type: in vivo, rat; settings: large doses in the food, continual presence; less reduction than selective extinction with naloxone
[2] = tested on: humans; settings: highly palatable versus less pleasant tasting foods; cited from earlier work
[3] = tested on: humans; settings: acute study; cited from earlier work
[4] = tested on: Male Wistar rats; assay: Selective extinction in alcohol-experienced rats: naloxone before alcohol access, saccharin access without injection; type: in vivo, rat
Method: The example included here is a prior preclinical experiment in which the alternative opioidergically-reinforced behavior was saccharin drinking. Alcohol experienced rats had continual access to food and water. Alcohol solution was available for only an hour a day for 2 to 4 days. On the next day or two, saccharin solution instead was available. Naloxone (or saline for the control group) was injected prior to the alcohol session.
Male Wistar rats (n=26) were individually housed with daily access to 10% ethanol, with food and water always present. After 2 months prior experience, the rats were switched to having 2-4 alcohol-access days interspersed with 1 or 2 days when saccharin solution (1 g/l) was available for 1 hr. […] No injections were made prior to saccharin access.

[5] = continual administration; cited from earlier work
[6] = tested on: patients suffering from binge eating; settings: 50 mg once, twice or 3 times daily; cited from earlier work
[7] = tested on: humans; settings: cited from earlier work
[8] = tested on: alcoholics; settings: cited from earlier work
[9] = subcutaneous naloxone prior to alcohol access, dose reduced from 10.000 to 0.005 mg/kg

## C=C1CC[C@@]2(O)[C@H]3Cc4ccc(O)c5c4[C@@]2(CCN3CC2CC2)[C@H]1O5 [nalmefene]
[1]
  alcohol drinking: significantly lowered
[2]
  food intake: suppresses intake of highly palatable foods but not that of less pleasant tasting ones

## C=CCN1CC[C@]23c4c5ccc(O)c4O[C@H]2C(=O)CC[C@@]3(O)[C@H]1C5 [naloxone]
[3]
  size of an eating binge: significantly reduced
[4]; first three weeks
  saccharin drinking in the same animals: significantly increased
[4]; first three weeks, naloxone doses in the range previously found effective
  alcohol drinking: practically abolished
[4]; subcutaneous naloxone prior to alcohol access (10% ethanol), dose progressively reduced from 10.000 to 0.005 mg/kg
  alcohol drinking in comparison with saline controls and own prior levels: strongly reduced; also recorded: significantly reduced
[4]; [9]
  time alcohol drinking continued to be significantly reduced: 8 weeks
  time alcohol drinking was reduced to nearly zero for most rats: 6 weeks

## O=C1CC[C@@]2(O)[C@H]3Cc4ccc(O)c5c4[C@@]2(CCN3CC2CC2)[C@H]1O5 [naltrexone]
[5]
  side-effects: liver toxicity
[1]
  alcohol drinking: significantly lowered
[6]
  treatment of binge eating versus placebo: not significantly better than placebo
[7]
  preference for saccharin: reduces
[8]; naltrexone given during abstinence
  efficacy in alcoholism when given during abstinence: tended to be worse than placebo
[8]; naltrexone paired with drinking (extinction method)
  efficacy in alcoholism when paired with alcohol drinking: effective
[8]; three-year follow-up, mean ± SEM
  maximum days per week (naltrexone and drinking) reported by complying patients: 1.5±0.4 days per week
